Patent publication US20250197407A1 (Jazz Pharmaceuticals Ireland Limited, priority 2022, published 2025)

Biological target: SOS1/KRAS WT (Homo sapiens (Human), UniProt Q07889)
Assay: SOS1/KRAS WT HTRF binding assay (FRET-based protein-protein interaction)
Details: inhibition of His6-SOS1 (aa564-1049, 40 nM) binding to GST-KRAS-WT (aa1-188, 40 nM), at least two independent replicates; for IC50: read-out: SOS1/KRAS WT HTRF Binding assay pIC50 (converted)
Procedure, shortened: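 GST-KRAS WT (aa1-188, 40 nM) and His6-SOS1 exchange domain (aa564-1049, 40 nM) were incubated 60 min at room temperature with compound dose response in HEPES pH7.3 buffer with 10 mM EDTA and 100 mM KF. Anti-GST-Eu(K)/anti-6His-XL665 HTRF was read after 4 hr, and IC50 came from a four-parameter fit (≥2 replicates).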

Chain of SOS1/KRAS WT (Q07889 564-1049): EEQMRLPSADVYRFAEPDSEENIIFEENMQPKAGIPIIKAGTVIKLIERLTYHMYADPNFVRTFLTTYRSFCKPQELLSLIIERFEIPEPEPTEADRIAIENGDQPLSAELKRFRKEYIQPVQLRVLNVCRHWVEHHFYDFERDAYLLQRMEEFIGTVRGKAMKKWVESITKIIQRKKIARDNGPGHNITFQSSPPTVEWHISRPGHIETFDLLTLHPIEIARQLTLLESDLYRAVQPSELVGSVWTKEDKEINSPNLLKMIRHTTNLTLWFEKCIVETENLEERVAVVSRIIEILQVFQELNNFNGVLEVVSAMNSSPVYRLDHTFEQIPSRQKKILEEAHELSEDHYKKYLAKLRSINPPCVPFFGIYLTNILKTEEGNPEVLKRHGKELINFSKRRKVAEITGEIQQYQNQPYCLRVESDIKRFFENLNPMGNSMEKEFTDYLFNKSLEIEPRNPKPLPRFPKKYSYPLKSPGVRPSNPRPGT

Row | IC50 [µM] | SOS1/KRAS WT HTRF Binding assay pIC50 | Structure (SMILES)
1 | 0.00617 | – | Cc1c([C@@H](C)Nc2nnc(C)c3cc4c(cc23)N(C(C)C)C(=O)C4(C)C)cccc1C(F)(F)C(C)(C)O [Compound 124, 1-isopropyl-3,3,5-trimethyl-8-[[(1R)-1-[3-(1,1-difluoro-2-hydroxy-2-methyl-propyl)-2-methyl-phenyl]ethyl]amino]pyrrolo[2,3-g]phthalazin-2-one]
2 | 0.0245 | – | Cc1c([C@@H](C)Nc2nnc(C)c3cc4c(cc23)N(C)C(=O)C42CCOCC2)cccc1C(F)(F)C(C)(C)O [Compound 104, 1,5-dimethyl-8-[[(1R)-1-[3-(1,1-difluoro-2-hydroxy-2-methyl-propyl)-2-methyl-phenyl]ethyl]amino]spiro[pyrrolo[2,3-g]phthalazine-3,4′-tetrahydropyran]-2-one]
3 | 0.0107 | – | Cc1nnc(N[C@H](C)c2cccc(C(F)(F)F)c2)c2cc3c(cc12)C(C)(C)C(=O)N3C [Compound 32, 1,3,3,5-tetramethyl-8-[[(1R)-1-[3-(trifluoromethyl)phenyl]ethyl]amino] pyrrolo[2,3-g]phthalazin-2-one]
4 | 0.00617 | – | CCOC1(C)C(=O)N(C)c2cc3c(N[C@H](C)c4cccc(C(F)(F)CO)c4C)nnc(C)c3cc21 (stereo partly drawn) [Compound 134, 3-ethoxy-1,3,5-trimethyl-8-[[(1R)-1-[3-(1,1-difluoro-2-hydroxy-ethyl)-2-methyl-phenyl]ethyl]amino]pyrrolo[2,3-g]phthalazin-2-one]
5 | 0.0129 | – | COC1(C)C(=O)N(C2CC2)c2cc3c(N[C@H](C)c4cccc(C(F)(F)CO)c4)nnc(C)c3cc21 (stereo partly drawn) [Compound 142, 1-cyclopropyl-3-methoxy-3,5-dimethyl-8-[[(1R)-1-[3-(1,1-difluoro-2-hydroxy-ethyl)phenyl]ethyl]amino]pyrrolo [2,3-g]phthalazin-2-one]
6 | 0.0145 | – | CCC1(OC)C(=O)N(C)c2cc3c(N[C@H](C)c4cccc(C(F)(F)CO)c4)nnc(C)c3cc21 (stereo partly drawn) [Compound 206, 3-ethyl-3-methoxy-1,5-dimethyl-8-[[(1R)-1-[3-(1,1-difluoro-2-hydroxy-ethyl)phenyl]ethyl]amino]pyrrolo [2,3-g]phthalazin-2-one]
7 | 0.0933 | – | Cc1nnc(N[C@H](C)c2ccc3cn[nH]c3c2)c2cc3c(cc12)n(C)c(=O)n3C [Compound 57, 5-[[(1R)-1-(1H-indazol-6-yl)ethyl]amino]-1,3,8-trimethyl-imidazo[4,5-g]phthalazin-2-one]
8 | 0.0182 | – | CCOC1(C)C(=O)N(C)c2cc3c(C)nnc(N[C@H](C)c4cccc(C(F)(F)CO)c4F)c3cc21 (stereo partly drawn) [Compound 201, 3-ethoxy-1,3,8-trimethyl-5-[[(1R)-1-[3-(1,1-difluoro-2-hydroxy-ethyl)-2-fluoro-phenyl]ethyl]amino]pyrrolo[3,2-g]phthalazin-2-one]
9 | 0.0132 | – | COC1(C)C(=O)N(C)c2cc3c(N[C@H](C)c4cc(F)cc(C(F)(F)C(C)(C)O)c4C)nnc(C)c3cc21 (stereo partly drawn) [Compound 181, 3-methoxy-1,3,5-trimethyl-8-[[(1R)-1-[3-(1,1-difluoro-2-hydroxy-2-methyl-propyl)-5-fluoro-2-methyl-phenyl]ethyl]amino]pyrrolo[2,3-g]phthalazin-2-one]
10 | 0.00977 | – | CCN1C(=O)C(C)(OC)c2cc3c(C)nnc(N[C@H](C)c4cccc(C(F)(F)CO)c4)c3cc21 (stereo partly drawn) [Compound 171, 1-ethyl-3-methoxy-3,5-dimethyl-8-[[(1R)-1-[3-(1,1-difluoro-2-hydroxy-ethyl)phenyl]ethyl]amino]pyrrolo [2,3-g]phthalazin-2-one]
11 | 0.00977 | – | Cc1c([C@@H](C)Nc2nnc(C)c3cc4c(cc23)N(C)C(=O)C42CCOCC2)cccc1C(F)(F)CO [Compound 72, 1,5-dimethyl-8-[[(1R)-1-[3-(1,1-difluoro-2-hydroxy-ethyl)-2-methyl-phenyl]ethyl]amino]spiro[pyrrolo [2,3-g]phthalazine-3,4′-tetrahydropyran]-2-one]
12 | 0.011 | – | COC1(C)C(=O)N(C2CC2)c2cc3c(N[C@H](C)c4cccc(C(F)(F)C(C)(C)O)c4F)nnc(C)c3cc21 (stereo partly drawn) [Compound 139, 1-cyclopropyl-3-methoxy-3,5-dimethyl-8-[[(1R)-1-[3-(1,1-difluoro-2-hydroxy-2-methyl-propyl)-2-fluoro-phenyl]ethyl]amino]pyrrolo[2,3-g]phthalazin-2-one]
13 | 0.0115 | – | Cc1nnc(N[C@H](C)c2cccc(C(F)(F)CN)c2F)c2cc3c(cc12)C(C)(C)C(=O)N3C [Compound 118, 1,3,3,5-tetramethyl-8-[[(1R)-1-[3-(2-amino-1,1-difluoro-ethyl)-2-fluoro-phenyl]ethyl]amino]pyrrolo[2,3-g]phthalazin-2-one]
14 | 0.00955 | – | CCC1(OC)C(=O)N(C)c2cc3c(N[C@H](C)c4cccc(C(F)(F)C(C)(C)O)c4C)nnc(C)c3cc21 (stereo partly drawn) [Compound 209, 3-ethyl-3-methoxy-1,5-dimethyl-8-[[(1R)-1-[3-(1,1-difluoro-2-hydroxy-2-methyl-propyl)-2-methyl-phenyl]ethyl]amino]pyrrolo[2,3-g]phthalazin-2-one]
15 | 0.912 | – | Cc1nnc(N[C@H](C)c2cccc(C(F)(F)F)n2)c2cc3c(cc12)n(C)c(=O)n3C [Compound 74, 1,3,8-trimethyl-5-[[(1R)-1-[6-(trifluoromethyl)-2-pyridyl]ethyl]amino]imidazo[4,5-g]phthalazin-2-one]
16 | – | 7.75 | COCC1(C)C(=O)N(C)c2cc3c(N[C@H](C)c4cccc(C(F)(F)C(C)(C)O)c4)nnc(C)c3cc21 (stereo partly drawn) [Compound 91, D8-[[(1R)-1-[3-(1,1-difluoro-2-hydroxy-2-methyl-propyl)phenyl]ethyl]amino]-3-(methoxymethyl)-1,3,5-trimethyl-pyrrolo[3,2-g]phthalazin-2-one]
17 | 0.00891 | – | Cc1nnc(N[C@H](C)c2cccc(C(F)(F)C(C)(C)O)c2)c2cc3c(cc12)C1(CCOCC1)C(=O)N3C [Compound 84, 1,5-dimethyl-8-[[(1R)-1-[3-(1,1-difluoro-2-hydroxy-2-methyl-propyl)phenyl]ethyl]amino]spiro [pyrrolo[2,3-g]phthalazine-3,4′-tetrahydropyran]-2-one]
18 | 0.00282 | – | Cc1nnc(N[C@H](C)c2cccc(C(F)F)c2F)c2cc3c(cc12)n(C)c(=O)n3C(C)C [Compound 43, 3-isopropyl-1,8-dimethyl-5-[[(1R)-1-[3-(difluoromethyl)-2-fluoro-phenyl]ethyl]amino]imidazo[4,5-g]phthalazin-2-one]
19 | 0.012 | – | COCC1(C)C(=O)N(C)c2cc3c(N[C@H](C)c4cccc(C(F)(F)CO)c4)nnc(C)c3cc21 (stereo partly drawn) [Compound 106, 8-[[(1R)-1-[3-(1,1-difluoro-2-hydroxy-ethyl)phenyl]ethyl]amino]-3-(methoxymethyl)-1,3,5-trimethyl-pyrrolo[3,2-g]phthalazin-2-one]
20 | 0.1 | – | Cc1nnc(N[C@H](C)c2cccc3c(F)cn(C)c23)c2cc3c(cc12)n(C)c(=O)n3C [Compound 61, 1,3,8-trimethyl-5-[[(1R)-1-(3-fluoro-1-methyl-indol-7-yl)ethyl]amino]imidazo[4,5-g]phthalazin-2-one]
21 | 0.0219 | – | CCOC1(C)C(=O)N(C)c2cc3c(C)nnc(N[C@H](C)c4cccc(C(F)(F)CO)c4C)c3cc21 (stereo partly drawn) [Compound 199, 3-ethoxy-1,3,8-trimethyl-5-[[(1R)-1-[3-(1,1-difluoro-2-hydroxy-ethyl)-2-methyl-phenyl]ethyl]amino]pyrrolo[3,2-g]phthalazin-2-one]
22 | 0.0347 | – | Cc1nnc(N[C@H](C)c2cccc(C(F)(F)F)c2)c2cc3c(cc12)OCCC(=O)N3C [Compound 42, 5,10-dimethyl-7-[[(1R)-1-[3-(trifluoromethyl)phenyl]ethyl]amino]-2,3-dihydropyridazino[4,5-h][1,5]benzoxazepin-4-one]
23 | 0.00851 | – | Cc1c([C@@H](C)Nc2nnc(C)c3cc4c(cc23)N(C2CC2)C(=O)C4(C)C)cccc1C(F)(F)CO [Compound 66, 1-cyclopropyl-3,3,5-trimethyl-8-[[(1R)-1-[3-(1,1-difluoro-2-hydroxy-ethyl)-2-methyl-phenyl]ethyl]amino]pyrrolo[2,3-g]phthalazin-2-one]
24 | 0.0174 | – | Cc1nnc(N[C@H](C)c2cccc(C(F)(F)CO)c2F)c2cc3c(cc12)n(C)c(=O)n3C [Compound 7, 5-[[(1R)-1-[3-(1,1-difluoro-2-hydroxy-ethyl)-2-fluoro-phenyl]ethyl]amino]-1,3,8-trimethyl-imidazo[4,5-g]phthalazin-2-one]
25 | 0.00871 | – | Cc1c([C@@H](C)Nc2nnc(C)c3cc4c(cc23)N(C)C(=O)C42CCCC2)cccc1C(F)(F)CO [Compound 193, 1′,5′-dimethyl-8′-[[(1R)-1-[3-(1,1-difluoro-2-hydroxy-ethyl)-2-methyl-phenyl]ethyl]amino]spiro[cyclopentane-1,3′-pyrrolo[2,3-g]phthalazine]-2′-one]
26 | 0.01 | – | Cc1c([C@@H](C)Nc2nnc(C)c3cc4c(cc23)n(C(C)(C)C)c(=O)n4C)cccc1C(F)(F)CO [Compound 100, 3-tert-butyl-1,8-dimethyl-5-[[(1R)-1-[3-(1,1-difluoro-2-hydroxy-ethyl)-2-methyl-phenyl]ethyl]amino]imidazo[4,5-g]phthalazin-2-one]
27 | 0.0123 | – | Cc1nnc(N[C@H](C)c2cccc(C(F)F)c2F)c2cc3c(cc12)n(C)c(=O)n3C1COC1 [Compound 147, 5-[[(1R)-1-[3-(difluoromethyl)-2-fluoro-phenyl]ethyl]amino]-1,8-dimethyl-3-(oxetan-3-yl)imidazo[4,5-g]phthalazin-2-one]
28 | 0.0234 | – | Cc1nnc(N[C@H](C)c2cc(F)cc(C(F)(F)CO)c2)c2cc3c(cc12)n(C)c(=O)n3C [Compound 51, 5-[[(1R)-1-[3-(1,1-difluoro-2-hydroxy-ethyl)-5-fluoro-phenyl]ethyl]amino]-1,3,8-trimethyl-imidazo[4,5-g]phthalazin-2-one]
